Results: patent US20190175783A1, “High-Throughput Method for Detecting Tooth Stain Prevention and Removal” (Johnson & Johnson Consumer Inc., priority 2017, published 2019)

How the values were obtained:
[1] = Stain prevention test (450 nm absorbance of stain displaced after pre-treatment)
Experimental: Stain Prevention Test Procedure: • 1. Form a pellicle coat on hydroxyapatite (HAp) particles by mixing the particles with saliva and incubating the mixture. • 2. Transfer HAp particle/saliva suspension into a large batch filter container. • 3. Filter the saliva supernatant to waste. • 4. Treat pellicle coated HAp particles, sending the supernatant to waste. • 5. Filter the treated, pellicle coated HAp particles, sending the supernatant to waste. • 6. Stain the pre-treated pellicle coated HAp particles by adding a stain solution directly to the filter container and incubate. • 7. Wash any loosely bound stain off the pre-treated, pellicle coated HAp particles. • 8. Elute the stain from the stained, pre-treated, pellicle coated HAp particles 5% PPi solution. • 9. Filter and collect supernatant. • 10. Make UV-Vis absorbance measurements on collected supernatant.
A mass of 1 gram of hydroxyapatite particles (Bio-Rad, Hercules, Calif., catalogue 1570020) was suspended in artificial saliva at a concentration of 10 milligram/100 microliter and allowed to incubate for 15 minutes at 37° C. to form a pellicle coating. A volume of 100 microliter per sample was aliquoted into respective filter vesicle (96-well filter plate or filter tube) and the supernatant was filtered out from the particles (n=3 per sample treatment). The treatment solutions were prepared within a range of 0% to 2% polyphosphate solution in water. The stock 2% w/v solution was serial diluted 1:1 in water to achieve treatment concentrations of polyphosphates of 1%, 0.5%, 0.25%, 0.125%, 0.0625%, and 0.03125% w/v. The 0% solution was a water control. The pellicle coated hydroxyapatite particles were exposed to 200 microliter of treatment solution of polyphosphate for at least 1 minute at room temperature with agitation (120 rpm). The treatment was removed by filtration and the particles were exposed to 100 microliter of a 10% instant coffee stain solution and incubated at 37° C. for 30 minutes. The coffee was removed by filtration and the particles were washed of any loosely bound stain. The residual stain on the particles was displaced with 200 microliter of an alkaline 5% pyrophosphate solution by incubating at room temperature for 10 minutes. The displaced stain was collected in a 96-well plate and absorbance measurements were made (Tecan, Infinite M200 Pro) between 230 and 1000 nm with a 10 nm step increase between measurements. The absorbance at 450 nm was used as a measure of stain prevention, with the lower absorbance values indicating more stain prevented from attaching to hydroxyapatite particle.

[2] = Stain removal test (450 nm absorbance of stain removed)
Experimental: • 1. Form a pellicle coat on hydroxyapatite (HAp) particles by mixing the particles with saliva and incubating the mixture. • 2. Transfer HAp particle/saliva suspension into a large batch filter container. • 3. Filter the saliva supernatant to waste. • 4. Stain particles by adding a stain solution directly to the filter container and incubate. • 5. Transfer stained, pellicle coated HAp particle suspension into filter container. • 6. Filter the stained, pellicle coated HAp particles, sending the supernatant to waste. • 7. Re-suspend stained, pellicle coated HAp particles in water, and optionally store for future testing. • 8. Prepare stained, pellicle coated HAp particles for treatment. • 9. Treat stained HAp particles. • 10. Filter and collect the supernatant. • 11. Make UV-Vis absorbance measurements on collected supernatant.
A mass of one gram of hydroxyapatite powder (Bio-Rad, Hercules, Calif., catalogue 1570020) was suspended in artificial saliva (Northeast Laboratories, Winslow, Me., catalogue no. T0300) at a concentration of 10 milligram/100 microliter and allowed to incubate for 15 minutes at 37° C. to form a pellicle coating. The supernatant was filtered out from the particles. The particles were re-suspended in 10% instant coffee stain solution at a concentration of 10 milligram/100 microliter and incubated at 37° C. for 30 minutes. The coffee solution was removed by filtration and the particles were washed of any loosely bound stain. The now coffee stained, pellicle coated hydroxyapatite particles were suspended in water at a concentration of 10 milligram/100 microliter. A volume of 100 microliter per sample was aliquoted into respective filter vesicle (96-well filter plate or filter tube) and the supernatant was filtered out from the particles (n=3 per sample). The treatment solutions were prepared within a range of 0% to 2% polyphosphate solution in water. The stock 2% w/v solution was serial diluted 1:1 in water to achieve treatment concentrations of polyphosphates of 1%, 0.5%, 0.25%, 0.125%, 0.0625%, and 0.03125% w/v. The 0% solution was a water control. After, the stained hydroxyapatite particles were exposed to 200 microliter of respective treatment for 1 or 2 minutes at room temperature with agitation (120 rpm). The polyphosphate treatment solutions ranged from 0.031% to 2% w/v. A negative control, using distilled water as the treatment solution, was tested as a comparison to the polyphosphate treatment solutions. […] Subsequently, absorbance measurements (Tecan, Infinite M200 Pro) were made between 230 and 1000 nm with a 10 nm step increase between measurements. The absorbance at 450 nm was used as a measure of stain removed, where higher absorbance values indicated more stain displaced from the hydroxyapatite particles.

[3] = concentration from 0.500% to 2.00%
[4] = concentration increased from 0.031% to 0.500%

polyphosphate [polyphosphate solutions]
stain prevention, effect of pre-treatment time ([1]; 1-, 2- and 10-minute stain prevention pre-treatments): no significant difference
level of stain removal (450 nm absorbance of displaced stain) [1, 3]: remained constant
stain prevention (450 nm absorbance) [1, 4]: stain prevention increased
450 nm absorbance values of stain displaced as a function of concentration ([1]; polyphosphate 0.031% to 2% w/v in water, 1-, 2- and 10-minute pre-treatments, 10% instant coffee stain, FIG. 2): clear dose response
stain removal, effect of treatment time ([2]; 1 versus 2 minute treatments): no significant difference
level of stain removal (450 nm absorbance) [2, 3]: remained constant
stain removal (450 nm absorbance) [2, 4]: stain removal increased
450 nm absorbance values of stain removed as a function of concentration ([2]; polyphosphate 0.031% to 2% w/v in water, 1- and 2-minute treatments, 10% instant coffee stain, FIG. 1): clear dose response
